Data set [1] is described as follows: Binding affinity to human P4H expressed in Escherichia coli at 13 mM after 30 mins by SDS-PAGE analysis.
The nature of data set [2]: Binding affinity to human P4H expressed in Escherichia coli using dansyl-Gly-phe-pro-Gly-OEt as substrate at 356 mM incubated up to 5 mins followed by substrate addition by competition assay in presence of alpha-ketoglutarate.
Another data set relates to Caenorhabditis elegans. Briefly: (§1) Toxicity in L4-stage of Caenorhabditis elegans expressing dpy-18 assessed as embyronic lethality after 24 hrs by light microscopic analysis. To be noted: in vivo, 24 h. Format: organism-based.
Data set [3] can be described thus: as §1. To be noted: in vivo, read-out: LD50. Format: organism-based.
A short description of data set [4]: Irreversible inhibition of human P4H expressed in Escherichia coli using dansyl-Gly-phe-pro-Gly-OEt and alpha-ketoglutarate as substrate incubated up to 15 mins followed by substrate addition by Kitz-Wilson plot analysis.

Structures are written as SMILES. Activity calls are given as the source filed them. The rule behind the calls is not given here.

Consider `O=C([O-])CCC(=O)C1CO1.[Na+]` (racemic), for which the result in data set [1] and in data set [2] was Active. Further, in the data set on Caenorhabditis elegans, the Activity result is “Dose-dependent effect”. The LC50 at 24 h in data set [3] worked out at 110 µM. Also, the inhibition result in data set [4] is “Dose-dependent effect”.

(Values after ChEMBL document CHEMBL2390904, “Bioavailable affinity label for collagen prolyl 4-hydroxylase” (Bioorg Med Chem, 2013).)
